Patent publication US9067898B1, “Isothiazole derivatives as GPR120 agonists for the treatment of type II diabetes” (Janssen Pharmaceutica NV, priority 2014, dated 2015)

Assays:
[1] = molecular target: T1, long form of human GPR120 (Homo sapiens, UniProt Q5NUL3); assay: Human GPR120 DiscoveRx PathHunter Beta-Arrestin assay, Procedure β-arrestin A; format: cell-based; conditions: PathHunter CHO-K1 GPR120 β-Arrestin cell line, 3000 cells per well, read-out: hGPR120 β-arrestin A EC50
T1 construct: host or cells: PathHunter CHO-K1 GPR120 β-Arrestin Cell Line
From the text: The binding of an agonist (medium/long chain fatty acids or small molecule agonists) to the G-protein-coupled receptor GPR120 activates phospholipase C, leading to release of intracellular Ca^+2 through the generation of inositol 1,4,5-trisphosphate (InsP3 or IP3). GPR120 activation can also trigger intracellular signaling via recruitment of Beta-Arrestin. In the present method, agonist-induced activation of the human GPR120 receptor is monitored through the use of PathHunter CHO-K1 GPR120 Beta-Arrestin Cell Line engineered by DiscoveRx, as detailed below. The cell lines are designed to co-express both the ProLink/Enzyme Donor (PK)-tagged GPCR and the Enzyme […] (EA)-tagged Beta-Arrestin fusion proteins. Upon GPR120 receptor stimulation/activation, the EA-tagged Beta-Arrestin portion is translocated to the tagged receptor, where the two enzyme fragments are brought within close proximity. Under these conditions, these fragments can interact and form an active Beta-gal enzyme complex through Enzyme Fragment Complementation (EFC). This active Beta-gal complex can enzymatically hydrolyse the substrate to produce a detectable light signal; therefore, activation as a function of agonist concentration can be expressed as an EC50 value to determine relative compound activities. This in vitro assay therefore serves to assess compound agonist activity of the GPR120. Procedure β-Arrestin A: In Procedure β-arrestin A, the cell used were PathHunter CHO-K1 GPR120 β-Arrestin Cell Line, expressing the long form of human GPR120 (Genbank accession number NM 181745), with 3000 cells per well. Procedure β-Arrestin B: In Procedure 3-arrestin B the cells used were PathHunter CHO-K1 GPR120S β-Arrestin Cell Line, expressing the short form of the GPR120 receptor (Accession #NM_181745), with 5000 cells/well. Assay Procedure:
The selected CHO-K1 GPR120 β-Arrestin cells were cultured in Ham's F12 media supplemented with 10% fetal bovine serum (FBS), 1% Glutamine, lx p/s, 800 μg/mL G418 and 300 μg/mL Hygromycin B (for selection). Cell stocks were maintained and grown in a sub-confluent state using standard cell culture procedures. The day before the experiment, the cells were harvested with non-enzymatic cell dissociation buffer and re-suspended in complete growth media at the desired concentration. A Corning 384-plate was then seeded with the proper number of cells in a volume of 25 μL, per well. The seeded plates were incubated overnight at 37° C.
On the day of the experiment, the Assay Buffer containing (a) HBSS with Ca^++ and Mg^++, (b) 20 mM HEPES, and (c) 0.1% BSA stabilizer (pH 7.4) was prepared. The growth medium was gently removed from the cell plates and 20 μL of Assay Buffer added to each well. The plate was then incubated at 37° C. for 60 min. Test compounds were serially diluted in Assay Buffer to desired concentrations (more particularly to one or more of the following μM concentrations: 25, 12.5, 6.25, 3.125, 1.5625, 0.78125, 0.390625, 0.1953125, 0.09765625, 0.048828125, 0.024414063, 0.012207031). Five μL of compound dilution was then added to each well and the plate incubated at 37° C. for 90 min. The detection reagents were prepared according to the manufacture's instruction. Twelve μL of the detection reagents were added to each well and the plate incubated at room temperature for 60 min.
The plates were read on an EnVision instrument, using Protocol name: Luminescence, Plate type: 384 Costar, Measurement height: 3 mm, Measurement time: 1 s, Aperture: 384 Plate aperture. The % activity relative to the positive control was calculated using the following equation:
The % Activity values were plotted versus the concentration of test compound and fitted to a sigmoidal dose-response curve with a Hill slope=1 (fixed value) using nonlinear regression with GraphPad Prism 5.0 to calculate the EC50 values. […]

Human GPR120 short form = molecular target: T2, Human GPR120 short form (Homo sapiens, UniProt Q5NUL3); assay: Human GPR120 calcium flux assay (FLIPR), Procedure Calcium A; format: cell-based; conditions: HEK-293 cells expressing human GPR120 short form, 2500 cells/well; read-out: GPR120 Ca2+ Assay A EC50
T2 construct: expressed in transfected cells
T2 sequence (Q5NUL3 1-361): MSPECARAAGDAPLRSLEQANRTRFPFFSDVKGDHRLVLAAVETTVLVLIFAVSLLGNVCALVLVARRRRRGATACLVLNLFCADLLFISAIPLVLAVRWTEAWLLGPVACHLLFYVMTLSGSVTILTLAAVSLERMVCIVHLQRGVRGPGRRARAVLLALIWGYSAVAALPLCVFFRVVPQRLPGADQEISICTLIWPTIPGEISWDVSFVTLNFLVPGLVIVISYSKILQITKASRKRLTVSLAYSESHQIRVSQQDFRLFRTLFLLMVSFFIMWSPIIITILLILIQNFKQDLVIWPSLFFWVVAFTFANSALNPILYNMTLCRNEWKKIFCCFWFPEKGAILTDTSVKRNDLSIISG
In short: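 HEK293 cells stably expressing the short isoform (NM_001195755.1), 2500/well, starved 1 h, then loaded with Fluo-4 NW plus probenecid (30 min 37 °C, 15 min RT). Compound solutions 0.012–100 μM, 0.2% DMSO final; FLIPR read 300 s after addition. EC50 from Fmax−Fmin fitted to variable-slope sigmoid (Hill <2).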

T1 sequence (Q5NUL3 1-377 isoform Q5NUL3-1): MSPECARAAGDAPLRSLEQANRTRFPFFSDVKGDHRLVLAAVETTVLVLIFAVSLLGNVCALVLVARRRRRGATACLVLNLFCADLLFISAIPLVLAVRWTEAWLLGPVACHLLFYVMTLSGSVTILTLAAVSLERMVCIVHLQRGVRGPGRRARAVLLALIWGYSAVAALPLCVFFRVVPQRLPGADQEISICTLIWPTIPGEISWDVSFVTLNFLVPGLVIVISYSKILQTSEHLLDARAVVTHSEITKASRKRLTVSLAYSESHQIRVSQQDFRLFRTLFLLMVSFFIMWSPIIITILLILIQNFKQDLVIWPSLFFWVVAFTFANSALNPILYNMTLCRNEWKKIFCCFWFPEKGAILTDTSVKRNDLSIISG
T1 sequence (P32121 whole entry partner): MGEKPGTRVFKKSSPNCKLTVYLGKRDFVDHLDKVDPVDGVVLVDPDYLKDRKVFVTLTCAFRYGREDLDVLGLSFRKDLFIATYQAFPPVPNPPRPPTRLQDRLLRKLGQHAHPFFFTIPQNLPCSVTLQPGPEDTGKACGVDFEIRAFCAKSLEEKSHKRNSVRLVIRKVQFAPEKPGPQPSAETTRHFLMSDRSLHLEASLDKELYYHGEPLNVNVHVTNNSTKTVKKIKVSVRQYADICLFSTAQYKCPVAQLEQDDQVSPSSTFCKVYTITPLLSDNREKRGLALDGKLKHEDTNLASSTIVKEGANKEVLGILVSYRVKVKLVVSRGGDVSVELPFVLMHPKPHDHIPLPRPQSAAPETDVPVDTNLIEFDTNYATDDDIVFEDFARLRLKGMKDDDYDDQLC

Compound	EC50 [1]	EC50 (Human GPR120 short form)
O=C(O)CCc1ccc(OCc2c(-c3ccc(Cl)cc3)nsc2C(F)(F)F)c(Br)c1 [Cpd 69, 3-(3-bromo-4-[[3-(4-chlorophenyl)-5-(trifluoromethyl)-1,2-thiazol-4-yl]methoxy]phenyl)propanoic acid]	83 nM	31 nM
CCc1ccc(-c2nsc(C(F)(F)F)c2COc2c(F)cc(CCC(=O)O)cc2F)cc1 [Cpd 70, 3-(4-[[3-(4-ethylphenyl)-5-(trifluoromethyl)-1,2-thiazol-4-yl]methoxy]-3,5-difluorophenyl)propanoic acid]	98 nM	34 nM
O=C(O)CCc1ccc(OCc2c(Cl)nsc2-c2ccc(Cl)cc2)c(F)c1F [Cpd 72, 3-(4-[[3-chloro-5-(4-chlorophenyl)-1,2-thiazol-4-yl]methoxy]-2,3-difluorophenyl)propanoic acid]	103 nM	39 nM
CCc1ccc(-c2nsc(C(F)(F)F)c2COc2c(F)cc(CC(C)C(=O)O)cc2F)cc1 (centres unmarked) [Cpd 80, 3-(4-[[3-(4-ethylphenyl)-5-(trifluoromethyl)-1,2-thiazol-4-yl]methoxy]-3,5-difluorophenyl)-2-methylpropanoic acid]	246 nM	51 nM
COc1ccc(-c2nsc(C(F)(F)F)c2COc2c(F)cc(CCCO)cc2F)cn1 [Cpd 81, 3-(3,5-difluoro-4-[[3-(6-methoxypyridin-3-yl)-5-(trifluoromethyl)-1,2-thiazol-4-yl]methoxy]phenyl)propan-1-ol]	94 nM	51 nM
Cc1c(CCC(=O)O)ccc(OCc2c(-c3ccc(Cl)c(F)c3)nsc2C(F)(F)F)c1C [Cpd 82, 3-(4-((3-(4-chloro-3-fluorophenyl)-5-(trifluoromethyl)isothiazol-4-yl)methoxy)-2,3-dimethylphenyl)propanoic acid]	172 nM	54 nM
CCc1ccc(-c2snc(Cl)c2COc2ccc(CCCO)c(F)c2F)cc1 [Cpd 83, 3-(4-((3-chloro-5-(4-ethylphenyl)isothiazol-4-yl)methoxy)-2,3-difluorophenyl)propan-1-ol]	54 nM	56 nM
Cc1ccc(-c2snc(C)c2COc2c(F)cc(CCC(=O)O)cc2F)c(F)c1 [Cpd 84, 3-(3,5-difluoro-4-[[5-(2-fluoro-4-methylphenyl)-3-methyl-1,2-thiazol-4-yl]methoxy]phenyl) propanoic acid]	119 nM	56 nM
COc1ccc(-c2nsc(C(F)(F)F)c2COc2ccc(CCC(=O)O)c(C)c2C)cc1 [Cpd 86, 3-(4-[[3-(4-methoxyphenyl)-5-(trifluoromethyl)-1,2-thiazol-4-yl]methoxy]-2,3-dimethylphenyl) propanoic acid]	85 nM	57 nM
O=C(O)CCc1cc(F)c(OCc2c(-c3ccc4c(c3)OCO4)nsc2C(F)(F)F)c(F)c1 [Cpd 87, 3-(4-[[3-(2H-1,3-benzodioxol-5-yl)-5-(trifluoromethyl)-1,2-thiazol-4-yl]methoxy]-3,5-difluorophenyl)propanoic acid]	88 nM	62 nM
Cc1c(CCC(=O)O)ccc(OCc2c(Cl)nsc2-c2ccc(Cl)cc2)c1C [Cpd 88, 3-(4-[[3-chloro-5-(4-chlorophenyl)-1,2-thiazol-4-yl]methoxy]-2,3-dimethylphenyl)propanoic acid]	81 nM	67 nM
O=C(O)CCc1cc(F)c(OCc2c(-c3c(F)cc(Cl)cc3F)nsc2C(F)(F)F)c(F)c1 [Cpd 96, 3-(4-((3-(4-chloro-2,6-difluorophenyl)-5-(trifluoromethyl)isothiazol-4-yl)methoxy)-3,5-difluorophenyl)propanoic acid]	287 nM	73 nM
COc1ccc(-c2snc(Cl)c2COc2c(F)cc(CCC(=O)O)cc2F)cc1 [Cpd 97, 3-(4-[[3-chloro-5-(4-methoxyphenyl)-1,2-thiazol-4-yl]methoxy]-3,5-difluorophenyl)propanoic acid]	338 nM	73 nM
COc1ccc(-c2nsc(C(F)(F)F)c2COc2c(F)cc(CCC(=O)O)cc2F)cn1 [Cpd 98, 3-(3,5-difluoro-4-((3-(6-methoxypyridin-3-yl)-5-(trifluoromethyl)isothiazol-4-yl)methoxy)phenyl) propanoic acid]	185 nM	74 nM
COc1ccc(-c2nsc(C(F)(F)F)c2COc2c(F)cc(CCC(=O)O)cc2F)cc1 [Cpd 99, 3-(3,5-difluoro-4-[[3-(4-methoxyphenyl)-5-(trifluoromethyl)-1,2-thiazol-4-yl]methoxy]phenyl)propanoic acid]	91 nM	75 nM
Cc1c(CCC(=O)O)ccc(OCc2c(Cl)nsc2-c2ccccc2)c1C [Cpd 101, 3-[4-[(3-chloro-5-phenyl-1,2-thiazol-4-yl)methoxy]-2,3-dimethylphenyl]propanoic acid]	189 nM	76 nM
Cc1c(CCC(=O)O)ccc(OCc2c(Cl)nsc2-c2ccccc2Cl)c1C [Cpd 104, 3-(4-[[3-chloro-5-(2-chlorophenyl)-1,2-thiazol-4-yl]methoxy]-2,3-dimethylphenyl)propanoic acid]	399 nM	83 nM
CCc1ccc(-c2nsc(C(F)(F)F)c2COc2ccc(CC(C)C(=O)O)cc2F)cc1 (centres unmarked) [Cpd 105, 3-(4-((3-(4-ethylphenyl)-5-(trifluoromethyl)isothiazol-4-yl)methoxy)-3-fluorophenyl)-2-methylpropanoic acid]	217 nM	86 nM
O=C(O)CCc1ccc(OCc2c(-c3ccc(Cl)cc3)nsc2C(F)(F)F)c(F)c1F [Cpd 106, 3-(4-[[3-(4-chlorophenyl)-5-(trifluoromethyl)-1,2-thiazol-4-yl]methoxy]-2,3-difluorophenyl)propanoic acid]	98 nM	86 nM
CCc1ccc(-c2snc(Cl)c2COc2c(F)cc(CCC(=O)O)c(F)c2F)cc1 [Cpd 111, 3-(4-((3-chloro-5-(4-ethylphenyl)isothiazol-4-yl)methoxy)-2,3,5-trifluorophenyl)propanoic acid]	244 nM	98 nM
Cc1c(CCC(=O)O)cc(F)c(OCc2c(-c3ccc(Cl)cc3)nsc2C(F)(F)F)c1F [Cpd 113, 3-(4-((3-(4-chlorophenyl)-5-(trifluoromethyl)isothiazol-4-yl)methoxy)-3,5-difluoro-2-methylphenyl)propanoic acid]	71 nM	99 nM
O=C(O)CCc1cc(F)c(OCc2c(Cl)nsc2-c2ccc(Cl)cc2F)c(F)c1 [Cpd 114, 3-(4-((3-chloro-5-(4-chloro-2-fluorophenyl)isothiazol-4-yl)methoxy)-3,5-difluorophenyl)propanoic acid]	295 nM	100 nM
